Measured values taken from ChEMBL document CHEMBL3045259, “Synthesis, molecular docking studies, and in vitro screening of sulfanilamide-thiourea hybrids as antimicrobial and urease inhibitors” (Med Chem Res, 2013).
pKi: −log10 of the molar value. ≈ marks a conversion by molar mass, not a printed value. Calls of active or inactive are those of the source. The calls are words filed in the database; no cut-off is given here.

Columns and labels:
Urease = Urease (Canavalia ensiformis, UniProt P07374); test: (§1) Inhibition of Canavalia ensiformis (jack bean) urease assessed as release of ammonia after 30 min by indophenol method
Shigella flexneri = test: Antibacterial activity against Shigella flexneri assessed as growth inhibition after 24 hr by NCCLS broth micro-dilution method; format: functional
Escherichia coli = test: Antibacterial activity against Escherichia coli assessed as growth inhibition after 24 hr by NCCLS broth micro-dilution method; format: functional
Staphylococcus aureus = test: Antibacterial activity against Staphylococcus aureus assessed as growth inhibition after 24 hr by NCCLS broth micro-dilution method; format: functional
Bacillus subtilis = test: Antibacterial activity against Bacillus subtilis assessed as growth inhibition after 24 hr by NCCLS broth micro-dilution method; format: functional
Aspergillus niger = test: Antifungal activity against Aspergillus niger assessed as inhibition of fungal hyphae extension after 24 to 48 hr by agar well diffusion method; format: functional
Aspergillus = test: Antifungal activity against Aspergillus […] assessed as inhibition of fungal hyphae extension after 24 to 48 hr by agar well diffusion method; format: functional
Aspergillus flavus = test: Antifungal activity against Aspergillus flavus assessed as inhibition of fungal hyphae extension after 24 to 48 hr by agar well diffusion method; format: functional
[1] = biological target: Urease (Canavalia ensiformis) (UniProt P07374); test: as §1
[2] = biological target: Urease (Canavalia ensiformis) (UniProt P07374); test: Ratio of thiourea Ki to compound Ki for Canavalia ensiformis (jack bean) urease

Urease, sequence (P07374 whole entry): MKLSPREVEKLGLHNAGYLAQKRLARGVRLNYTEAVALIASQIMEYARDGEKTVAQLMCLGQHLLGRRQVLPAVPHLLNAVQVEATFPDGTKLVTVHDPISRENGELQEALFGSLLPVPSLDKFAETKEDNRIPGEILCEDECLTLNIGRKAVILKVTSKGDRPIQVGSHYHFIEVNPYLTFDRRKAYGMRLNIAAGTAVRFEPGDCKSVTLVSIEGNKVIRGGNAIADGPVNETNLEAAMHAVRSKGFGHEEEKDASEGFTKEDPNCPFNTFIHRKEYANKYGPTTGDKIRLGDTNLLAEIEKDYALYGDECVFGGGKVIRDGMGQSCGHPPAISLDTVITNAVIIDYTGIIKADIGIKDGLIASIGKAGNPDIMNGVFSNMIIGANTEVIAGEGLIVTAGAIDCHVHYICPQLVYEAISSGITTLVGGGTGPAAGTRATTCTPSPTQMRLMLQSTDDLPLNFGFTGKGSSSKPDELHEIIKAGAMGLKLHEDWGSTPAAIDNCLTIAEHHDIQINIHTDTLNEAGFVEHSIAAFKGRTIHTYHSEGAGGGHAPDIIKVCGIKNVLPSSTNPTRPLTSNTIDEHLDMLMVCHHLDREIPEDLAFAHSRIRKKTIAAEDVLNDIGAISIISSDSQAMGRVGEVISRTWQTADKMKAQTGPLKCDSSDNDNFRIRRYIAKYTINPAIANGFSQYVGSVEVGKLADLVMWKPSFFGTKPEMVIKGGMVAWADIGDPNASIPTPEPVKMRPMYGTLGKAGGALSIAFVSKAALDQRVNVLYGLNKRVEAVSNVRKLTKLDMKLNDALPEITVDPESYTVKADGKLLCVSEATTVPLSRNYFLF
Urease (Canavalia ensiformis), sequence (P07374 whole entry, looked up): as the sequence (P07374 whole entry) above

Row | Structure (SMILES) | pKi (Urease) | MIC (Shigella flexneri) | MIC (Escherichia coli) | MIC (Staphylococcus aureus) | MIC (Bacillus subtilis) | inhibition zone (IZ) (Aspergillus niger) | inhibition (Aspergillus) | inhibition zone (IZ) (Aspergillus flavus) | inhibition (Aspergillus flavus) | inhibition [1] | Ratio Ki [2] | inhibition zone (IZ) (Aspergillus) | inhibition (Aspergillus niger)
1 | Cc1cccc(C(=O)NC(=S)Nc2ccc(S(N)(=O)=O)cc2)c1 | 6.05 | 0.313 µg/mL (≈ 0.896 µM) | 1.25 µg/mL (≈ 3.58 µM) | 0.625 µg/mL (≈ 1.79 µM) | 0.313 µg/mL (≈ 0.896 µM) | – | – | – | – | – | – | – | –
2 | Cc1ccc(C(=O)NC(=S)Nc2ccc(S(N)(=O)=O)cc2)cc1 | 5.36 | 0.156 µg/mL (≈ 0.446 µM) | 0.313 µg/mL (≈ 0.896 µM) | 0.313 µg/mL (≈ 0.896 µM) | 0.313 µg/mL (≈ 0.896 µM) | – | – | – | – | – | – | – | –
3 | NS(=O)(=O)c1ccc(NC(=S)NC(=O)c2cccc(F)c2)cc1 | 5.83 | 0.156 µg/mL (≈ 0.441 µM) | 0.313 µg/mL (≈ 0.886 µM) | 0.313 µg/mL (≈ 0.886 µM) | 0.313 µg/mL (≈ 0.886 µM) | 2.4 mm | inactive | 2.8 mm | – | – | – | – | –
4 | CCC(CC(=O)NC(=S)Nc1ccc(S(N)(=O)=O)cc1)c1ccccc1 (stereo not drawn) | 5.91 | 0.313 µg/mL (≈ 0.799 µM) | 1.25 µg/mL (≈ 3.19 µM) | 0.625 µg/mL (≈ 1.6 µM) | 0.313 µg/mL (≈ 0.799 µM) | – | – | – | – | – | – | – | –
5 | NC(N)=S [THIOUREA] | 4.64 | – | – | – | – | – | – | – | – | – | – | – | –
6 | NS(=O)(=O)c1ccc(NC(=S)NC(=O)c2ccc(Cl)cc2[N+](=O)[O-])cc1 | 5.25 | 0.156 µg/mL (≈ 0.376 µM) | 0.156 µg/mL (≈ 0.376 µM) | 0.156 µg/mL (≈ 0.376 µM) | 0.156 µg/mL (≈ 0.376 µM) | – | – | – | – | – | – | – | –
7 | NS(=O)(=O)c1ccc(NC(=S)NC(=O)c2ccc(Cl)cc2Cl)cc1 | 5.72 | 0.313 µg/mL (≈ 0.774 µM) | 0.313 µg/mL (≈ 0.774 µM) | 0.313 µg/mL (≈ 0.774 µM) | 0.313 µg/mL (≈ 0.774 µM) | 0.8 mm | inactive | – | inactive | – | – | – | –
8 | Cc1ccccc1C(=O)NC(=S)Nc1ccc(S(N)(=O)=O)cc1 | – | 0.313 µg/mL (≈ 0.896 µM) | 0.313 µg/mL (≈ 0.896 µM) | 0.625 µg/mL (≈ 1.79 µM) | 0.625 µg/mL (≈ 1.79 µM) | – | – | – | – | 53% | – | – | –
9 | NS(=O)(=O)c1ccc(NC(=S)NC(=O)c2cc([N+](=O)[O-])ccc2Cl)cc1 | 6.36 | 0.313 µg/mL (≈ 0.754 µM) | 0.313 µg/mL (≈ 0.754 µM) | 0.156 µg/mL (≈ 0.376 µM) | 0.156 µg/mL (≈ 0.376 µM) | 1.6 mm | inactive | 2.1 mm | – | – | 50 | – | –
10 | CCCCCCCCCCCC(=O)NC(=S)Nc1ccc(S(N)(=O)=O)cc1 | 5.89 | 0.313 µg/mL (≈ 0.757 µM) | 0.313 µg/mL (≈ 0.757 µM) | 0.313 µg/mL (≈ 0.757 µM) | 0.313 µg/mL (≈ 0.757 µM) | 4.6 mm | – | 5.1 mm | – | – | – | 4.9 mm | –
11 | O=C(O)c1cn(C2CC2)c2cc(N3CCNCC3)c(F)cc2c1=O [CIPROFLOXACIN] | – | 0.313 µg/mL (≈ 0.945 µM) | 0.156 µg/mL (≈ 0.471 µM) | 0.156 µg/mL (≈ 0.471 µM) | 0.625 µg/mL (≈ 1.89 µM) | – | – | – | – | – | – | – | –
12 | COc1cccc(C(=O)NC(=S)Nc2ccc(S(N)(=O)=O)cc2)c1OC | 6.09 | 0.156 µg/mL (≈ 0.394 µM) | 0.313 µg/mL (≈ 0.791 µM) | 0.313 µg/mL (≈ 0.791 µM) | 0.313 µg/mL (≈ 0.791 µM) | – | – | – | inactive | – | – | 0.9 mm | inactive
13 | NS(=O)(=O)c1ccc(NC(=S)NC(=O)Cc2ccccc2)cc1 | 5.80 | 0.313 µg/mL (≈ 0.896 µM) | 0.313 µg/mL (≈ 0.896 µM) | 0.313 µg/mL (≈ 0.896 µM) | 0.313 µg/mL (≈ 0.896 µM) | – | – | – | – | – | – | – | –
14 | NS(=O)(=O)c1ccc(NC(=S)NC(=O)c2ccc([N+](=O)[O-])cc2)cc1 | 5.12 | 0.313 µg/mL (≈ 0.823 µM) | 0.313 µg/mL (≈ 0.823 µM) | 0.156 µg/mL (≈ 0.41 µM) | 0.156 µg/mL (≈ 0.41 µM) | – | – | – | – | – | – | – | –
15 | CN(C/C=C/C#CC(C)(C)C)Cc1cccc2ccccc12 [TERBINAFINE] | – | – | – | – | – | 5.3 mm | – | 5.7 mm | – | – | – | 5.2 mm | –
16 | COc1ccc(C(=O)NC(=S)Nc2ccc(S(N)(=O)=O)cc2)c(OC)c1OC | 5.87 | 0.313 µg/mL (≈ 0.736 µM) | 0.313 µg/mL (≈ 0.736 µM) | 0.156 µg/mL (≈ 0.367 µM) | 0.156 µg/mL (≈ 0.367 µM) | – | – | – | – | – | – | – | –
17 | COc1cccc(C(=O)NC(=S)Nc2ccc(S(N)(=O)=O)cc2)c1 | 6.19 | 0.313 µg/mL (≈ 0.857 µM) | 0.313 µg/mL (≈ 0.857 µM) | 0.313 µg/mL (≈ 0.857 µM) | 0.313 µg/mL (≈ 0.857 µM) | – | – | – | – | – | – | – | –
18 | COc1cc(OC)cc(C(=O)NC(=S)Nc2ccc(S(N)(=O)=O)cc2)c1 | 5.92 | 0.313 µg/mL (≈ 0.791 µM) | 0.313 µg/mL (≈ 0.791 µM) | 0.313 µg/mL (≈ 0.791 µM) | 0.313 µg/mL (≈ 0.791 µM) | 1.5 mm | – | 1.9 mm | – | – | – | 2.7 mm | –
19 | NS(=O)(=O)c1ccc(NC(=S)NC(=O)c2cccc([N+](=O)[O-])c2)cc1 | 6.35 | 0.313 µg/mL (≈ 0.823 µM) | 0.313 µg/mL (≈ 0.823 µM) | 0.313 µg/mL (≈ 0.823 µM) | 0.313 µg/mL (≈ 0.823 µM) | – | – | – | – | – | – | – | –
20 | NS(=O)(=O)c1ccc(NC(=S)NC(=O)c2cccc(Cl)c2)cc1 | 5.82 | 0.156 µg/mL (≈ 0.422 µM) | 0.156 µg/mL (≈ 0.422 µM) | 0.156 µg/mL (≈ 0.422 µM) | 0.156 µg/mL (≈ 0.422 µM) | – | – | – | – | – | – | – | –
21 | NS(=O)(=O)c1ccc(NC(=S)NC(=O)c2ccc(Cl)cc2)cc1 | 6.70 | 0.313 µg/mL (≈ 0.846 µM) | 0.313 µg/mL (≈ 0.846 µM) | 0.156 µg/mL (≈ 0.422 µM) | 0.156 µg/mL (≈ 0.422 µM) | – | – | – | – | – | 100 | – | –
22 | NS(=O)(=O)c1ccc(NC(=S)NC(=O)c2ccco2)cc1 | 5.94 | 0.313 µg/mL (≈ 0.962 µM) | 0.313 µg/mL (≈ 0.962 µM) | 0.625 µg/mL (≈ 1.92 µM) | 0.625 µg/mL (≈ 1.92 µM) | – | – | – | – | – | – | – | –
